2 compounds from patent publication US20180318834A1, “INTEGRATION OF ELECTROCHECMICAL PH MODULATION WITH LAB ON A CHIP TECHNOLOGIES” (Robert Bosch GmbH, priority 2015, published 2018) can be followed below.

Data set [1] in a line: Electrochemical generation of H+ or OH- ions at indium tin oxide electrode surfaces (cyclic voltammetry). The format is physicochemical. The text has this: FIG. 7B: Cyclic voltammetric study of the oxidation of Ascorbic acid test in ITO electrodes. Current increase around 0.25V indicates the start of oxidation at ITO electrodes.
Electrode material used: The electrode material was indium tin oxide. This is a semiconducting electrode surface with very large potential window in an aqueous solution.
Oxidation of ascorbic acid at the electrode surfaces produced H^+ ions and changed the electrode surface pH to a more acidic state:
The electrode potential at which it oxidizes was less than 0.5V for Indium tin oxide material vs Ag/AgCl reference electrode (as shown in FIG. 7). This potential was less than the voltages needed for the oxygen evolution reaction in aqueous solution. The ascorbic acid also acted as a sacrificial species to prevent electrochemical degradation of the surface chemistry.
Reduction of benzoquinone (C6H4O2) into Hydroquinone (C6H6O2) can produce OH^− ions at −0.1V: […]

The target of data set [2] is Green Fluorescent Protein (GFP) (Aequorea victoria, UniProt P42212). The data set can be described thus: Effect of benzoquinone substitution on protein (GFP) stability, by fluorescence intensity. In kind it is biochemical. The settings on record: incubation 30 min in phosphate buffered saline, concentration of benzoquinones 0.5 mM. The text has this:
Para-benzoquinones and ortho-benzoquinones (compounds 2, 4, 6, and 9 in FIG. 31) are susceptible to nucleophilic attack at the double bond of the ring (positions 2, 3, 5 and 6 in structure 2 of FIG. 31, positions 3, 4, 5 and 6 in structure 4 of FIG. 31, and positions 2 and 3 in structure 6 of FIG. 31). Introducing substituents at some or all of those positions can mitigate the problem of nucleophilic attack. For example, 1,4-benzoquinone (structure 2 in FIG. 31, where R1, R2, R3 and R4 are H) undergoes Michael addition reaction with amino groups of proteins (Loomis et al., Phytochemistry, 5, 423, (1966) and U.S. Pat. No. 6,753,312 B2). […] Fluorescence intensity of Green Fluorescent Protein (GFP) was measured after incubation with three different benzoquinones in phosphate buffered saline for 30 min (concentration of benzoquinones was 0.5 mM). The difference in fluorescence intensity indicates the varied effect that the different substitutions in benzoquinones have on the stability of GFP. Fluorescence intensity of GFP is indicative of its structural integrity. Losses in fluorescence intensity usually indicate loss of its tertiary structure (protein denaturation) (Yin D. X., Zhu L., Schimke R. T. Anal. Biochem. 1996, 235:195-201).

As to `O=C1O[C@H]([C@@H](O)CO)C(O)=C1O` [ascorbic acid], the “electrode potential at which it oxidizes” value in data set [1] (Indium tin oxide material vs Ag/AgCl reference electrode) is given as “less than 0.5 V”. In addition, in data set [1] (cyclic voltammetric study at ITO electrodes), the “start of oxidation (current increase)” value is listed as “around 0.25 V”.
For `O=C1C=CC(=O)C=C1` [unsubstituted benzoquinone, 1,4-benzoquinone], in data set [2], the “loss in GFP fluorescence intensity after incubation” value is recorded as 25%. Further, the “potential of reduction into Hydroquinone producing OH- ions” value in data set [1] (electro-reduction at indium tin oxide electrode) is recorded as −0.1 V.
